System: MIA PaCa-2 cells
Experiment: DNA microarray analysis (Affymetrix Human PrimeView);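 as to Mean (MiaPaca-2 * PA): Log2-transformed RMA normalized probe set signal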
Format: cell-based
[1] = gene HNRNPM, probeset 11761514_at
[2] = gene IER5, probeset 11716629_at
[3] = gene IRAK2, probeset 11733240_at
[4] = gene LIF, probeset 11758619_s_at
[5] = gene LTB, probeset 11739657_a_at
[6] = gene MALAT1, probeset 11745723_a_at
[7] = gene MARS2, probeset 11729710_a_at
[8] = gene MARS2, probeset 11750890_a_at
[9] = gene MCL1, probeset 11715484_a_at
[10] = gene NAV3, probeset 11723147_a_at
[11] = gene NFKBIA, probeset 11745878_x_at
[12] = gene NFKBIA, probeset 11757894_x_at
[13] = gene PHLDA2, probeset 11744005_at
[14] = gene PLEKHG6, probeset 11733595_x_at
[15] = gene RPS4X, probeset 11761933_at
[16] = gene SAT1, probeset 11743036_s_at
[17] = gene SDC4, probeset 11717639_x_at
[18] = gene SDC4, probeset 11749921_a_at
[19] = gene SH3BP1, probeset 11728063_x_at
[20] = gene SLC3A2, probeset 11733071_a_at
[21] = gene SLC3A2, probeset 11741149_x_at
[22] = gene SLC3A2, probeset 11746697_a_at
[23] = gene SLC3A2, probeset 11753434_a_at
[24] = gene SLC16A6, probeset 11735090_s_at
[25] = gene SLC16A6, probeset 11754629_s_at
[26] = gene SMAGP, probeset 11719864_a_at

Structure (SMILES): C=C(CC[C@@H](C(=O)O)[C@H]1[C@H](O)C[C@@]2(C)C3=C(CC[C@]12C)[C@@]1(C)CC[C@H](OC(C)=O)C(C)(C)[C@@H]1CC3)C(C)C [PA, Pachymic acid]
- Fold-Change (MiaPaca-2 * PA vs. MiaPaca-2 * control) [1]: 1.65
- Mean (MiaPaca-2 * PA) [1]: 9.69
- Fold-Change (MiaPaca-2 * PA vs. MiaPaca-2 * control) (gene HNRNPM, probeset 11761516_x_at, MiaPaca-2): 1.50
- Mean (MiaPaca-2 * PA) (gene HNRNPM, probeset 11761516_x_at, MiaPaca-2, PA-treated): 10.58
- Fold-Change (MiaPaca-2 * PA vs. MiaPaca-2 * control) (gene HOOK1, probeset 11750347_a_at, MiaPaca-2): 1.50
- Mean (MiaPaca-2 * PA) (gene HOOK1, probeset 11750347_a_at, MiaPaca-2, PA-treated): 3.97
- Fold-Change (MiaPaca-2 * PA vs. MiaPaca-2 * control) [2]: 1.60
- Mean (MiaPaca-2 * PA) [2]: 7.72
- Fold-Change (MiaPaca-2 * PA vs. MiaPaca-2 * control) (gene IL12A, probeset 11756769_a_at, MiaPaca-2): 1.50
- Mean (MiaPaca-2 * PA) (gene IL12A, probeset 11756769_a_at, MiaPaca-2, PA-treated): 5.04
- Fold-Change (MiaPaca-2 * PA vs. MiaPaca-2 * control) [3]: 1.59
- Mean (MiaPaca-2 * PA) [3]: 6.52
- Fold-Change (MiaPaca-2 * PA vs. MiaPaca-2 * control) (gene KLHL29, probeset 11745365_at, MiaPaca-2): 1.51
- Mean (MiaPaca-2 * PA) (gene KLHL29, probeset 11745365_at, MiaPaca-2, PA-treated): 5.04
- Fold-Change (MiaPaca-2 * PA vs. MiaPaca-2 * control) (gene LIF, probeset 11726498_at): 1.55
- Mean (MiaPaca-2 * PA) (gene LIF, probeset 11726498_at): 7.20
- Fold-Change (MiaPaca-2 * PA vs. MiaPaca-2 * control) [4]: 1.55
- Mean (MiaPaca-2 * PA) [4]: 9.50
- Fold-Change (MiaPaca-2 * PA vs. MiaPaca-2 * control) (gene LRP8, probeset 11741376_a_at, MiaPaca-2): 1.53
- Mean (MiaPaca-2 * PA) (gene LRP8, probeset 11741376_a_at, MiaPaca-2, PA-treated): 7.95
- Fold-Change (MiaPaca-2 * PA vs. MiaPaca-2 * control) [5]: 1.54
- Mean (MiaPaca-2 * PA) [5]: 6.97
- Fold-Change (MiaPaca-2 * PA vs. MiaPaca-2 * control) (gene MAFF, probeset 11726611_x_at, MiaPaca-2): 1.50
- Mean (MiaPaca-2 * PA) (gene MAFF, probeset 11726611_x_at, MiaPaca-2, PA-treated): 6.99
- Fold-Change (MiaPaca-2 * PA vs. MiaPaca-2 * control) [6]: 1.55
- Mean (MiaPaca-2 * PA) [6]: 9.40
- Fold-Change (MiaPaca-2 * PA vs. MiaPaca-2 * control) [7]: 1.55
- Mean (MiaPaca-2 * PA) [7]: 6.32
- Fold-Change (MiaPaca-2 * PA vs. MiaPaca-2 * control) [8]: 1.61
- Mean (MiaPaca-2 * PA) [8]: 6.51
- Fold-Change (MiaPaca-2 * PA vs. MiaPaca-2 * control) [9]: 1.60
- Mean (MiaPaca-2 * PA) [9]: 8.79
- Fold-Change (MiaPaca-2 * PA vs. MiaPaca-2 * control) (gene MMP1, probeset 11741897_a_at, MiaPaca-2): 1.52
- Mean (MiaPaca-2 * PA) (gene MMP1, probeset 11741897_a_at, MiaPaca-2, PA-treated): 5.59
- Fold-Change (MiaPaca-2 * PA vs. MiaPaca-2 * control) [10]: 1.54
- Mean (MiaPaca-2 * PA) [10]: 5.19
- Fold-Change (MiaPaca-2 * PA vs. MiaPaca-2 * control) (gene NFKBIA, probeset 11744000_a_at): 1.65
- Fold-Change (MiaPaca-2 * PA vs. MiaPaca-2 * control) [11]: 1.67
- Mean (MiaPaca-2 * PA) [11]: 11.53
- Fold-Change (MiaPaca-2 * PA vs. MiaPaca-2 * control) [12]: 1.56
- Mean (MiaPaca-2 * PA) [12]: 11.80
- Fold-Change (MiaPaca-2 * PA vs. MiaPaca-2 * control) (gene PABPC1L, probeset 11721609_a_at, MiaPaca-2): 1.51
- Mean (MiaPaca-2 * PA) (gene PABPC1L, probeset 11721609_a_at, MiaPaca-2, PA-treated): 9.20
- Fold-Change (MiaPaca-2 * PA vs. MiaPaca-2 * control) [13]: 1.57
- Mean (MiaPaca-2 * PA) [13]: 8.15
- Fold-Change (MiaPaca-2 * PA vs. MiaPaca-2 * control) (gene PHLDB2, probeset 11737041_a_at, MiaPaca-2): 1.50
- Mean (MiaPaca-2 * PA) (gene PHLDB2, probeset 11737041_a_at, MiaPaca-2, PA-treated): 11.63
- Fold-Change (MiaPaca-2 * PA vs. MiaPaca-2 * control) [14]: 1.55
- Mean (MiaPaca-2 * PA) [14]: 5.78
- Fold-Change (MiaPaca-2 * PA vs. MiaPaca-2 * control) (gene PNP, probeset 11718400_a_at, MiaPaca-2): 1.50
- Mean (MiaPaca-2 * PA) (gene PNP, probeset 11718400_a_at, MiaPaca-2, PA-treated): 10.30
- Fold-Change (MiaPaca-2 * PA vs. MiaPaca-2 * control) (gene RBM3, probeset 11760141_s_at, MiaPaca-2): 1.52
- Mean (MiaPaca-2 * PA) (gene RBM3, probeset 11760141_s_at, MiaPaca-2, PA-treated): 5.58
- Fold-Change (MiaPaca-2 * PA vs. MiaPaca-2 * control) (gene RCAN1, probeset 11763514_x_at, MiaPaca-2): 1.51
- Mean (MiaPaca-2 * PA) (gene RCAN1, probeset 11763514_x_at, MiaPaca-2, PA-treated): 7.84
- Fold-Change (MiaPaca-2 * PA vs. MiaPaca-2 * control) (gene RPL37A, probeset 11759821_at, MiaPaca-2): 1.51
- Mean (MiaPaca-2 * PA) (gene RPL37A, probeset 11759821_at, MiaPaca-2, PA-treated): 7.62
- Fold-Change (MiaPaca-2 * PA vs. MiaPaca-2 * control) [15]: 1.59
- Mean (MiaPaca-2 * PA) [15]: 5.23
- Fold-Change (MiaPaca-2 * PA vs. MiaPaca-2 * control) [16]: 1.56
- Mean (MiaPaca-2 * PA) [16]: 10.67
- Fold-Change (MiaPaca-2 * PA vs. MiaPaca-2 * control) [17]: 1.61
- Mean (MiaPaca-2 * PA) [17]: 10.95
- Fold-Change (MiaPaca-2 * PA vs. MiaPaca-2 * control) [18]: 1.53
- Mean (MiaPaca-2 * PA) [18]: 8.87
- Fold-Change (MiaPaca-2 * PA vs. MiaPaca-2 * control) [19]: 1.54
- Mean (MiaPaca-2 * PA) [19]: 7.60
- Fold-Change (MiaPaca-2 * PA vs. MiaPaca-2 * control) [20]: 1.55
- Mean (MiaPaca-2 * PA) [20]: 8.64
- Fold-Change (MiaPaca-2 * PA vs. MiaPaca-2 * control) [21]: 1.56
- Mean (MiaPaca-2 * PA) [21]: 8.54
- Fold-Change (MiaPaca-2 * PA vs. MiaPaca-2 * control) [22]: 1.58
- Mean (MiaPaca-2 * PA) [22]: 8.64
- Fold-Change (MiaPaca-2 * PA vs. MiaPaca-2 * control) [23]: 1.53
- Mean (MiaPaca-2 * PA) [23]: 7.98
- Fold-Change (MiaPaca-2 * PA vs. MiaPaca-2 * control) (gene SLC3A2, probeset 11754529_x_at, MiaPaca-2): 1.52
- Mean (MiaPaca-2 * PA) (gene SLC3A2, probeset 11754529_x_at, MiaPaca-2, PA-treated): 9.50
- Fold-Change (MiaPaca-2 * PA vs. MiaPaca-2 * control) [24]: 1.58
- Mean (MiaPaca-2 * PA) [24]: 5.46
- Fold-Change (MiaPaca-2 * PA vs. MiaPaca-2 * control) [25]: 1.55
- Mean (MiaPaca-2 * PA) [25]: 6.21
- Fold-Change (MiaPaca-2 * PA vs. MiaPaca-2 * control) [26]: 1.55
- Mean (MiaPaca-2 * PA) [26]: 9.61
- Fold-Change (MiaPaca-2 * PA vs. MiaPaca-2 * control) (gene SMURF2, probeset 11748382_a_at, MiaPaca-2): 1.50
- Mean (MiaPaca-2 * PA) (gene SMURF2, probeset 11748382_a_at, MiaPaca-2, PA-treated): 8.51
- Fold-Change (MiaPaca-2 * PA vs. MiaPaca-2 * control) (gene SNHG12, probeset 11753858_a_at, MiaPaca-2): 1.50
- Mean (MiaPaca-2 * PA) (gene SNHG12, probeset 11753858_a_at, MiaPaca-2, PA-treated): 10.82
- Fold-Change (MiaPaca-2 * PA vs. MiaPaca-2 * control) (gene SPRY4, probeset 11736669_s_at, MiaPaca-2): 1.50
